Assay results as given in the supplement of paper PMC10307832.

Legend:
Assay in all cases: relative viability (nuclei count vs DMSO), 5 days (fraction); higher = more cells survive
[1] = tested on: NCI-H2405
Procedure, shortened: (§1)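 Five library-drug doses in √10 steps were combined with a fixed anchor-drug dose, or a single drug was given alone, by pin tool to lung cancer cell lines in 1536-well plates the day after seeding. Nuclei were stained and counted after 5 days. Relative viability is the nuclei count in treated wells over that in vehicle wells, taken as the median of duplicate plates.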

[2] = tested on: LCLC-103H
Procedure, shortened: as §1

[3] = tested on: NCI-H650
Procedure, shortened: as §1

[4] = tested on: HCC-44
Procedure, shortened: as §1

[5] = tested on: NCI-H1793
Procedure, shortened: as §1

[6] = tested on: NCI-H1944
Procedure, shortened: as §1

[7] = tested on: SK-MES-1
Procedure, shortened: as §1

[8] = tested on: H3255
Procedure, shortened: as §1

[9] = tested on: ChaGo-K-1
Procedure, shortened: as §1

[10] = tested on: NCI-H2023
Procedure, shortened: as §1

[11] = tested on: NCI-H1395
Procedure, shortened: as §1

O=c1cc(-c2cccc3c2Sc2ccccc2S3)oc(N2CCOCC2)c1 + Nc1nc2[nH]cc(CCc3ccc(C(=O)N[C@@H](CCC(=O)O)C(=O)O)cc3)c2c(=O)[nH]1 [Pemetrexed] (partner 0.2 µM)
relative viability ([1]; first compound 0.08 µM): 0.859
relative viability ([1]; first compound 0.253 µM): 1.1
relative viability ([1]; first compound 0.8 µM): 1.06
relative viability ([1]; first compound 2.53 µM): 0.83
relative viability ([1]; first compound 8 µM): 1.02
relative viability ([2]; first compound 0.08 µM): 0.44
relative viability ([2]; first compound 0.253 µM): 0.467
relative viability ([2]; first compound 0.8 µM): 0.473
relative viability ([2]; first compound 2.53 µM): 0.423
relative viability ([2]; first compound 8 µM): 0.438
relative viability ([3]; first compound 0.08 µM): 0.917
relative viability ([3]; first compound 0.253 µM): 0.964
relative viability ([3]; first compound 0.8 µM): 0.878
relative viability ([3]; first compound 2.53 µM): 0.74
relative viability ([3]; first compound 8 µM): 0.866
relative viability ([4]; first compound 0.08 µM): 0.63
relative viability ([4]; first compound 0.253 µM): 0.641
relative viability ([4]; first compound 0.8 µM): 0.607
relative viability ([4]; first compound 2.53 µM): 0.67
relative viability ([4]; first compound 8 µM): 0.676
relative viability ([5]; first compound 0.08 µM): 0.728
relative viability ([5]; first compound 0.253 µM): 1.04
relative viability ([5]; first compound 0.8 µM): 0.798
relative viability ([5]; first compound 2.53 µM): 0.679
relative viability ([5]; first compound 8 µM): 1.2
relative viability ([6]; first compound 0.08 µM): 0.642
relative viability ([6]; first compound 0.253 µM): 0.518
relative viability ([6]; first compound 0.8 µM): 0.636
relative viability ([6]; first compound 2.53 µM): 0.516
relative viability ([6]; first compound 8 µM): 0.698
relative viability ([7]; first compound 0.08 µM): 1.07
relative viability ([7]; first compound 0.253 µM): 1.07
relative viability ([7]; first compound 0.8 µM): 0.838
relative viability ([7]; first compound 2.53 µM): 0.792
relative viability ([7]; first compound 8 µM): 0.833
relative viability ([8]; first compound 0.08 µM): 0.474
relative viability ([8]; first compound 0.253 µM): 0.547
relative viability ([8]; first compound 0.8 µM): 0.533
relative viability ([8]; first compound 2.53 µM): 0.552
relative viability ([8]; first compound 8 µM): 0.56
relative viability ([9]; first compound 0.08 µM): 0.251
relative viability ([9]; first compound 0.253 µM): 0.264
relative viability ([9]; first compound 0.8 µM): 0.248
relative viability ([9]; first compound 2.53 µM): 0.287
relative viability ([9]; first compound 8 µM): 0.273
relative viability ([10]; first compound 0.08 µM): 0.222
relative viability ([10]; first compound 0.253 µM): 0.3
relative viability ([10]; first compound 0.8 µM): 0.198
relative viability ([10]; first compound 2.53 µM): 0.213
relative viability ([10]; first compound 8 µM): 0.221
relative viability ([11]; first compound 0.08 µM): 0.842
relative viability ([11]; first compound 0.253 µM): 0.764
relative viability ([11]; first compound 0.8 µM): 0.936
relative viability ([11]; first compound 2.53 µM): 0.765
relative viability ([11]; first compound 8 µM): 1.09
